The results in this text go back to US10723711B2, “1,1,1-trifluoro-3-hydroxypropan-2-yl carbamate derivatives and 1,1,1-trifluoro-4-hydroxybutan-2-yl carbamate derivatives as MAGL inhibitors” (PFIZER INC., priority 2015, dated 2020).

As usually defined, the IC50 is the concentration at which inhibition is half-maximal.

Structures are written as SMILES. Counter-ions that a name gives are not always drawn. Like-named read-outs stand apart in the source and are kept apart here.

This test concerns the target T1, human recombinant Monoacylglycerol Lipase (Homo sapiens, UniProt Q99685).
T1 sequence (Q99685 1-303): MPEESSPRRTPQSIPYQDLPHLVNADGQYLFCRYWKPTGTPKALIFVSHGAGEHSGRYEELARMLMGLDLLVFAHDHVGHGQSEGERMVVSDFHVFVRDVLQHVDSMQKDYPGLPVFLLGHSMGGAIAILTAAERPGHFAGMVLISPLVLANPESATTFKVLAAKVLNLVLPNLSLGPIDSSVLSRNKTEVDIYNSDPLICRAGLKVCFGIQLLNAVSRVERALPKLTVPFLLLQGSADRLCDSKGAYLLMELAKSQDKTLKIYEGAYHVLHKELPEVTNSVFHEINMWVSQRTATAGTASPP
The test can be described thus: MAGL inhibition enzymatic assay, fluorogenic substrate 7-HCA, IC50 at T=0 min or after 30 minute incubation (T=30 min). It counts as biochemical. The conditions noted are these: geometric mean of 2-4 determinations unless otherwise indicated. How it is done: An equal volume of 7-HCA in assay buffer with 10% DMSO was added either immediately (T=0 min) or after a 30 minute incubation (T=30 min) to initiate the reaction. […] After these dilutions, the final concentration of the test compound ranged from 3 μM to 0.03 nM. […] IC50 values were generated based on a four parameter fit model using ABASE software from IDBS.

[1] abbreviates: T = 0 min (substrate added immediately), read-out: MAGL (T = 0 min) IC50.
Setting [2] is: T = 30 min (30 minute incubation), read-out: MAGL (T = 30 min) IC50.

With `CN(C(=O)c1ccccn1)[C@H]1COC2(CCN(C(=O)O[C@H](CO)C(F)(F)F)CC2)C1` [Example 146], the IC50 under setting [1] amounted to 0.539 µM and the IC50 under setting [2] came to 0.048 µM.
On the same counts, the results for `O=C(O[C@H](CO)C(F)(F)F)N1CCC2(CC1)CN(S(=O)(=O)N1CCOCC1)CCO2` [Example 22, (2R)-1,1,1-Trifluoro-3-hydroxypropan-2-yl 4-(morpholin-4-ylsulfonyl)-1-oxa-4,9-diazaspiro[5.5]undecane-9-carboxylate] are 2.64 µM and 0.192 µM.
Take `O=C(OC(CO)C(F)(F)F)N1CCC(c2ccn(C3CCOCC3)n2)CC1` (stereo not drawn) [Example 38, 1,1,1-trifluoro-3-hydroxypropan-2-yl 4-[1-(tetrahydro-2H-pyran-4-yl)-1H-pyrazol-3-yl]piperidine-1-carboxylate]: the IC50 under setting [1] was determined as 1.47 µM and the IC50 under setting [2] came out at 0.077 µM.
In the case of `CN(C1COC2(CCN(C(=O)O[C@H](CO)C(F)(F)F)CC2)C1)S(=O)(=O)C1CCOCC1` (single isomer, unassigned) [Example 117], the IC50 runs as follows: under setting [1], 1.97 µM; under setting [2], 0.153 µM.
Take `O=C(O[C@H](CO)C(F)(F)F)N1CCC(O)(CNS(=O)(=O)c2ccccc2)CC1` [Example 16, (2R)-1,1,1-Trifluoro-3-hydroxypropan-2-yl 4-hydroxy-4-{[(phenylsulfonyl)amino]methyl}piperidine-1-carboxylate]: the IC50 runs as follows: under setting [1], 1.84 µM; under setting [2], 0.161 µM.
Turning to `O=C(O[C@H](CO)C(F)(F)F)N1C2CCC1CN(Cc1ccc(F)cc1)C2` [Example 23, (2R)-1,1,1-Trifluoro-3-hydroxypropan-2-yl 3-(4-fluorobenzyl)-3,8-diazabicyclo[3.2.1]octane-8-carboxylate], the IC50 was more than 1.52 µM under setting [1] and 0.078 µM under setting [2].
Consider `O=C(O[C@H](CO)C(F)(F)F)N1C[C@@H]2CN(c3cc(C4CC4)ccn3)C[C@@H]2C1` [Example 48], for which the IC50 is, setting by setting: under setting [1], more than 3 µM; under setting [2], 0.926 µM.
On the same counts, the results for `Cn1nccc1-c1cccc(OC2CCN(C(=O)O[C@H](CO)C(F)(F)F)CC2)n1` [Example 65] are 0.359 µM and 0.03 µM.
Consider `CCOP(=O)(OCC)OC[C@@H](OC(=O)N1CCC2(CC1)CN(S(=O)(=O)c1ccc(F)cc1)CCO2)C(F)(F)F` [Example 88], for which the IC50 under setting [1] is more than 3 µM and the IC50 under setting [2] is more than 3 µM.
As for `O=C(O[C@H](CO)C(F)(F)F)N1CCC2(CC1)CN(Cc1ccc(F)cc1)C(=O)O2` [Example 72], the IC50 reads like this: under setting [1], 0.22 µM; under setting [2], 0.028 µM.
Turning to `O=C(O[C@H](CO)C(F)(F)F)N1CCC2(CC1)CC(Oc1ccccn1)CO2` (single isomer, unassigned) [Example 129], the half-maximal inhibitory concentration (IC50) by setting is: under setting [1], more than 3 µM; under setting [2], 0.474 µM.
Taken in the same sequence, the figures for `CC1N(S(=O)(=O)c2ccc(F)cc2)CCOC12CCN(C(=O)O[C@H](CO)C(F)(F)F)CC2` (single isomer, unassigned) [Example 70] were 0.655 µM and 0.069 µM.
Take `O=C(O[C@H](CO)C(F)(F)F)N1C[C@@H]2CN(S(=O)(=O)c3ccc(F)cc3)C[C@@H]2C1` [Example 40]: the IC50 under setting [1] amounted to 0.494 µM and the half-maximal inhibitory concentration (IC50) under setting [2] was 0.05 µM.
In the case of `O=C(O[C@H](CO)C(F)(F)F)N1CCC2(CC1)CC(Nc1ccccn1)CO2` (stereo partly drawn) [Example 27, (2R)-1,1,1-Trifluoro-3-hydroxypropan-2-yl 3-(pyridin-2-ylamino)-1-oxa-8-azaspiro[4.5]decane-8-carboxylate], the IC50 stood at 0.484 µM under setting [1] and 0.043 µM under setting [2].
On the same counts, the results for `O=C(OC(C(F)(F)F)C(F)(F)CO)N1CCC2(CC1)CN(S(=O)(=O)c1ccc(F)cc1)CCO2` (single isomer, unassigned; ent-2) [Example 21, 1,1,1,3,3-Pentafluoro-4-hydroxybutan-2-yl 4-[(4-fluorophenyl)sulfonyl]-1-oxa-4,9-diazaspiro[5.5]undecane-9-carboxylate, ENT-2] are 0.599 µM and 0.053 µM.
Take `CN(C1COC2(CCN(C(=O)OC(COP(=O)(O)O)C(F)(F)F)CC2)C1)S(=O)(=O)c1ccccc1` (stereo not drawn) [Example 148]: the IC50 runs as follows: under setting [1], more than 3 µM; under setting [2], more than 1.23 µM.
On to `O=C(O[C@H](CO)C(F)(F)F)N1CCC2(CC1)CN(CC1CCCOC1)CCO2` (single isomer, unassigned) [Example 5], for which the IC50 runs as follows: under setting [1], 1.7 µM; under setting [2], 0.161 µM.
On the same counts, the results for `CCC1CN(S(=O)(=O)c2ccc(F)cc2)CC2(CCN(C(=O)O[C@H](CO)C(F)(F)F)CC2)O1` (stereo partly drawn) [Example 18, (2R)-1,1,1-Trifluoro-3-hydroxypropan-2-yl 2-ethyl-4-[(4-fluorophenyl)sulfonyl]-1-oxa-4,9-diazaspiro[5.5]undecane-9-carboxylate] are 0.524 µM and 0.049 µM.
On the same counts, the results for `O=C(O[C@H](CO)C(F)(F)F)N1CCC2(CC1)CN(S(=O)(=O)CCCN1CCCC1)CCO2` [Example 54] are more than 3 µM and more than 1.68 µM.
Turning to `O=C(O[C@H](CO)C(F)(F)F)N1CCC2(CC1)CC(n1cccn1)CO2` (single isomer, unassigned) [Example 104], the IC50 under setting [1] came to 1.86 µM and the IC50 under setting [2] came out at 0.157 µM.
Take `O=C(O[C@H](CO)C(F)(F)F)N1CCC2(CC1)CC(c1cccnc1)CO2` (mixture of isomers) [Example 122]: the IC50 by setting is: under setting [1], 0.385 µM; under setting [2], 0.032 µM.
For the compound `O=C(O[C@H](CO)C(F)(F)F)N1CCN(Cc2ccc(F)cc2)CC1` [Example 25, (2R)-1,1,1-trifluoro-3-hydroxypropan-2-yl 4-(4-fluorobenzyl)piperazine-1-carboxylate], the IC50 runs as follows: under setting [1], 0.794 µM; under setting [2], 0.071 µM.
Turning to `CN([C@H]1COC2(CCN(C(=O)O[C@H](COP(=O)(O)O)C(F)(F)F)CC2)C1)S(=O)(=O)c1ccccc1` [Example 30, (2R)-3,3,3-Trifluoro-2-[({(3R)-3-[methyl(phenylsulfonyl)amino]-1-oxa-8-azaspiro[4.5]dec-8-yl}carbonyl)oxy]propyl phosphate, disodium salt], the IC50 by setting is: under setting [1], more than 3 µM; under setting [2], 0.549 µM.
For the compound `C#Cc1ccc(-n2ccc([C@H]3[C@@H]4CN(C(=O)O[C@@H](CO)C(F)(F)F)C[C@@H]43)n2)cc1` [Example 82], the IC50 is more than 2.75 µM under setting [1] and 0.598 µM under setting [2].
Regarding `O=C(O[C@H](CO)C(F)(F)F)N1CCC2(CC1)CN(Cc1ccc(F)cc1)S(=O)(=O)CO2` [Example 28, (2R)-1,1,1-Trifluoro-3-hydroxypropan-2-yl 4-(4-fluorobenzyl)-1-oxa-3-thia-4,9-diazaspiro[5.5]undecane-9-carboxylate 3,3-dioxide], the IC50 is, setting by setting: under setting [1], 0.696 µM; under setting [2], 0.085 µM.
On to `CN(C)CCOP(=O)(O)OC[C@@H](OC(=O)N1CCC2(CC1)CN(S(=O)(=O)c1ccc(F)cc1)CCO2)C(F)(F)F` (mixture of isomers) [Example 89], for which the IC50 is more than 3 µM under setting [1] and more than 3 µM under setting [2].
Take `Cc1cnc(N2CCOC3(CCN(C(=O)O[C@H](CO)C(F)(F)F)CC3)C2)nc1` [Example 76]: the half-maximal inhibitory concentration (IC50) under setting [1] was determined as 0.658 µM and the IC50 under setting [2] worked out at 0.083 µM.
For `O=C(O[C@H](COP(=O)(O)O)C(F)(F)F)N1CCC2(CC1)CN(S(=O)(=O)c1ccc(F)cc1)CCO2` [Example 33, (2R)-3,3,3-Trifluoro-2-[({4-[(4-fluorophenyl)sulfonyl]-1-oxa-4,9-diazaspiro[5.5]undec-9-yl}carbonyl)oxy]propyl phosphate, (bis)-L-lysine salt], the IC50 under setting [1] was more than 3 µM and the IC50 under setting [2] was more than 3 µM.
As for `O=C(O[C@H](CO)C(F)(F)F)N1CCC2(CC1)CN(c1ccc(F)cn1)CCO2` [Example 14, (2R)-1,1,1-Trifluoro-3-hydroxypropan-2-yl 4-(5-fluoropyridin-2-yl)-1-oxa-4,9-diazaspiro[5.5]undecane-9-carboxylate], the IC50 is, setting by setting: under setting [1], 0.485 µM; under setting [2], 0.045 µM.
Consider `O=C(O[C@H](CO)C(F)(F)F)N1CCC2(CC1)CCN(C(=O)c1ccccn1)C2` [Example 128], for which the IC50 was found to be 0.423 µM under setting [1] and 0.05 µM under setting [2].
Take `O=C(O[C@H](CO)C(F)(F)F)N1CCC(O)(CN(Cc2ccc(F)cc2)C2CCOCC2)CC1` [Example 46]: the IC50 reads like this: under setting [1], 0.56 µM; under setting [2], 0.046 µM.
For `O=C(O[C@H](CO)C(F)(F)F)N1CCC(Oc2ccc(CO)cn2)CC1` [Example 75], the IC50 by setting is: under setting [1], 0.688 µM; under setting [2], 0.079 µM.
Take `O=C(O[C@H](CO)C(F)(F)F)N1CCC2(CC1)CN(S(=O)(=O)NCc1ccccn1)CCO2` [Example 74]: the IC50 reads like this: under setting [1], 0.392 µM; under setting [2], 0.052 µM.
For the compound `O=C(O[C@H](CO)C(F)(F)F)N1C[C@@H]2CN(S(=O)(=O)c3ccc(F)c(F)c3)C[C@@H]2C1` [Example 13, (2R)-1,1,1-Trifluoro-3-hydroxypropan-2-yl (3aR,6aS)-5-[(3,4-difluorophenyl)sulfonyl]hexahydropyrrolo[3,4-c]pyrrole-2(1H)-carboxylate], the IC50 runs as follows: under setting [1], 0.368 µM; under setting [2], 0.035 µM.
Regarding `O=C(O[C@H](CO)C(F)(F)F)N1CCC(CN(Cc2ccc(F)cc2)C2CCOCC2)CC1` [Example 50], the IC50 under setting [1] was found to be 0.857 µM and the IC50 under setting [2] amounted to 0.071 µM.
For the compound `O=C(O[C@H](CO)C(F)(F)F)N1CCC2(CCCN(Cc3ccc(F)cc3)C2)CC1` [Example 41], the IC50 under setting [1] was 1.58 µM and the IC50 under setting [2] amounted to 0.166 µM.
